Experimental data from US20200046703A1, “COMPOSITIONS AND METHODS FOR TREATMENT OF THE SIDE-EFFECTS ASSOCIATED WITH ADMINISTRATION OF THERAPEUTIC AGENTS” (ASYMMETRIC THERAPEUTICS, LLC, priority 2018, published 2020).
Values joined by “and” are separate entries in the source; they are usually repeats but may differ in a detail not shown here. Equal values may be shown once.

What was measured:
Assay type in all cases: cell-based, human
[1] = Proliferating HPEK cell viability with/without 5-FU; settings: human, proliferating HPEK cells; 10 μM of 5-FU; read-out: viability compared to a control system without 5-FU
Procedure: (§1) In another set of experiments, the results of which are shown in Table 2, proliferating HPEK cells, commonly used to assess skin tissue toxicity, were exposed to the clinically-relevant dose of 10 μM of 5-FU and different concentrations of oxypurinol, either alone or with different concentrations of adenine or uracil, using standard tissue culture methods and incubated at 37° C. Oxypurinol concentrations of 0.03 mM, 0.1 mM, and 0.3 mM were tested. Adenine and uracil concentrations of 0.1 mM and 0.3 mM were tested. The relative viability of the cells was determined after 120 hours.

[2] = system: proliferating HPEK cells; experiment: as above; settings: 5-FU 10 μM alone; relative to control; 120 hours
Procedure: as §1

[3] = Confluent HPEK cell viability with/without 5-FU; settings: human, confluent HPEK cells; 10 μM of 5-FU; read-out: viability compared to a control system without 5-FU
Procedure: (§2) Oxypurinol and allopurinol concentrations of 0.3 mM, 1.0 mM, and 3.0 mM, which are ten times higher than those used in the first set of experiments, were tested. An adenine concentration of 0.3 mM, which was the higher concentration used in the first set of experiments, was tested. The relative viability of the cells was determined after 120 hours.

[4] = system: confluent HPEK cells; experiment: Confluent HPEK cell viability with/without 5-FU; settings: 5-FU 10 μM alone; relative to control; 120 hours
Procedure: as §2

[5] = Proliferating HGEP cell viability with/without 5-FU; settings: human, proliferating HGEP cells; 10 μM of 5-FU; read-out: viability compared to a control system without 5-FU
Procedure: as §1, with “one” for “another”, “1,” for “2,”, “HGEP” for “HPEK”, “oral mucosal” for “skin tissue”

[6] = system: proliferating HGEP cells; experiment: as above; settings: 5-FU 10 μM alone; relative to control; 120 hours
Procedure: as §1, with “one” for “another”, “1,” for “2,”, “HGEP” for “HPEK”, “oral mucosal” for “skin tissue”

[7] = Confluent NHEK cell viability with/without 5-FU; settings: human, confluent NHEK cells; 10 μM of 5-FU; read-out: viability compared to a control system without 5-FU
Procedure: (§3) In yet another set of experiments, the results of which are shown in Table 4, confluent NHEK cells were exposed to the clinically-relevant dose of 10 μM of 5-FU and different concentrations of sodium hydroxide, oxypurinol, or allopurinol using standard tissue culture methods and incubated at 37° C. Sodium hydroxide concentrations of 1 mM, 2 mM, 3 mM, and 4 mM were tested. Oxypurinol and allopurinol concentrations of 0.1 mM, 0.3 mM, 1.0 mM, and 3.0 mM were tested, both in the presence and in the absence of 10 μM of 5-FU. The relative viability of the cells was determined after 120 hours. The sodium hydroxide trials were only performed to serve as a control.

[8] = system: confluent NHEK cells; experiment: Confluent NHEK cell viability with/without 5-FU; settings: 5-FU 10 μM alone; relative to control; 120 hours
Procedure: as §3

O=c1[nH]cc(F)c(=O)[nH]1 [5-FU, 5-fluorouracil, reference compound]
viability at 120 h, 10 µM [1]: 65.1%
relative cell viability (AVG) [2]: 0.6507
viability at 120 h, 10 µM [3]: 65.1%
relative cell viability (AVG) [4]: 0.64 and 0.6421
viability at 120 h, 10 µM [5]: 62.2%
relative cell viability (AVG) [6]: 0.6217
viability at 120 h, 10 µM [7]: 41.6%
relative cell viability (AVG) [8]: 0.42 and 0.4165
